The target in test [1] is T1, bovine beta-2 adrenoceptor (Bos taurus, UniProt Q28044).
T1 construct: expressed in transfected cells; host or cells: CHO cells
Kind of test: cAMP assay in CHO cells transfected with the bovine beta-2 adrenoceptor (DiscoveRx Hit Hunter cAMP II). Type of test: cell-based. The settings on record: CHO cells transfected with bovine beta-2 adrenoceptor, 30 minutes incubation with compound. How it is done: (§1) CHO cells transfected with the bovine or porcine beta-2 adrenceptors were maintained in culture in DMEM/HAMS F12+10% FBS+2 mM glutamine+500 μg/ml geneticin (for the porcine receptor the medium was supplement with 1.5 mM HEPES) at 37° C. with a 5% CO2 atmosphere.
(§2) Cells were plated into 96 well viewplates in medium and incubated overnight at 37° C. with a 5% CO2 atmosphere. The cells were pre-incubated with 0.5 mM IBMX in PBS for 30 minutes prior to incubation with increasing concentrations of experimental compound (5×10^−12 to 10^−5M) for 30 minutes at 37° C. with a 5% CO2 atmosphere. At the end of the incubation time the compound was removed and the cells assayed for cAMP using the DiscoveRx Hit Hunter cAMP II™ assay kit.
(§3) Duplicate samples were run for each experimental compound and the data generated was analysed using EC50 analysis software in Graphpad Prism.
In general terms: Cyclic AMP is a second messenger, typically raised through Gs and lowered through Gi signalling.

Test [2] deals with T2, porcine beta-2 adrenoceptor (Sus scrofa, UniProt Q28997).
T2 construct: expressed in transfected cells; host or cells: CHO cells
Kind of test: cAMP assay in CHO cells transfected with the porcine beta-2 adrenoceptor (DiscoveRx Hit Hunter cAMP II). Type of test: cell-based. The settings on record: CHO cells transfected with porcine beta-2 adrenoceptor, 30 minutes incubation with compound. The procedure:
as §1, §2, §3

T2 sequence (Q28997 whole entry): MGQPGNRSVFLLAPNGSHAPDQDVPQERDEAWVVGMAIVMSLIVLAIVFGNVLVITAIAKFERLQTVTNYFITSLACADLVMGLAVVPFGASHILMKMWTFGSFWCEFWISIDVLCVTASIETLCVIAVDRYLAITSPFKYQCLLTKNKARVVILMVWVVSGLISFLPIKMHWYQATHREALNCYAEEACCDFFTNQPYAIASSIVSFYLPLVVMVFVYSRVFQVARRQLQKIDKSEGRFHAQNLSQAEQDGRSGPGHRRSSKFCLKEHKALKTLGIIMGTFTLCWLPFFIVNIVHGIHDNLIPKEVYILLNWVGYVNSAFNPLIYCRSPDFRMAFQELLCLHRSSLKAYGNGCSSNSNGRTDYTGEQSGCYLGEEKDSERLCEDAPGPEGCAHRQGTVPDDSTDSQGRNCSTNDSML
T1 sequence (Q28044 whole entry): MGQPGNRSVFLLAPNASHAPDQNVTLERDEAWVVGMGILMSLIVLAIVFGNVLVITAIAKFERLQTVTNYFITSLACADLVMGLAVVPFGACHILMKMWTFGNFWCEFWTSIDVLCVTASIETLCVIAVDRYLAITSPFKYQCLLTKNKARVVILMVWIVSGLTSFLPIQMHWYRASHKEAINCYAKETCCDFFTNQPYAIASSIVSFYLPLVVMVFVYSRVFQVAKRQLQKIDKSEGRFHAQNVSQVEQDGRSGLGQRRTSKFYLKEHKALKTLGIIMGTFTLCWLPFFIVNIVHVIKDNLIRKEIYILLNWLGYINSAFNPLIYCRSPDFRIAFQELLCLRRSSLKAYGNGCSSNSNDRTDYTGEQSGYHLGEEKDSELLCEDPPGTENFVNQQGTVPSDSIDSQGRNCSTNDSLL

Broadly, the EC50 is the concentration at which the effect is half-maximal. For `CC(CCc1ncccc1O)N[C@@H]1CCn2c(=O)[nH]c3cccc(c32)[C@H]1O` (mixture of isomers) [Example 39, 7-Hydroxy-6-{[3-(3-hydroxypyridin-2-yl)-1-methylpropyl]amino}-4,5,6,7-tetrahydroimidazo[4,5,1-jk][1]benzazepin-2(1H)-one], the EC50 was determined as 330 nM in test [1] and 159 nM in test [2].

For the compound `O=c1[nH]c2cccc3c2n1CC[C@@H](NCCc1c[nH]c2ccccc12)[C@@H]3O` (racemic) [Example 40a], the EC50 was determined as 459 nM in test [1] and 20 nM in test [2].

With `O=c1[nH]c2cccc3c2n1CC[C@@H](NCCc1c[nH]c2ccccc12)[C@@H]3O` (racemic) [Example 40b], the values for the EC50 in test [1] and in test [2] were 550 nM and 28 nM, respectively.

With `CCOC(=O)c1[nH]c2cc(Cl)ccc2c1CCN[C@@H]1CCn2c(=O)[nH]c3cccc(c32)[C@H]1O` (racemic) [Example 41, Ethyl-6-chloro-3-(2-{[7-hydroxy-2-oxo-1,2,4,5,6,7-hexahydroimidazo[4,5,1-jk][1]benzazepin-6-yl]amino}ethyl)-1H-indole-2-carboxylate], the EC50 in test [1] was found to be 546 nM; in test [2], 26 nM.

For the compound `CC(/C=C/c1ccc2[nH]cnc2c1)N[C@@H]1CCn2c(=O)[nH]c3cccc(c32)[C@H]1O` (mixture of isomers) [Example 42, 6-{[3-(1H-Benzimidazol-5-yl)-1-methylprop-2-en-1-yl]amino}-7-hydroxy-4,5,6,7-tetrahydroimidazo[4,5,1-jk][1]benzazepin-2(1H)-one], the EC50 in test [1] turned out to be 23 nM; in test [2] it was 22 nM.

As for `CC(CCc1ccc2occc2c1)N[C@@H]1CCn2c(=O)[nH]c3cccc(c32)[C@H]1O` (mixture of isomers) [Example 43, 6-{[3-(1-Benzofuran-5-yl)-1-methylpropyl]amino}-7-hydroxy-4,5,6,7-tetrahydroimidazo[4,5,1-jk][1]benzazepin-2(1H)-one], the EC50 in test [1] was determined as 16 nM; in test [2], 11 nM.

For the compound `CC(CCc1c[nH]c2ccccc12)NC1CCn2c(=O)[nH]c3cccc(c32)C1O` (single isomer, unassigned) [Example 4a, 7-Hydroxy-6-{[3-(1H-indol-3-yl)-1-methylpropyl]amino}-4,5,6,7-tetrahydroimidazo[4,5,1-jk][1]benzazepin-2(1H)-one], the EC50 amounted to 3.2 nM in test [1] and 6.9 nM in test [2].

For the compound `CC(CCc1c[nH]c2ccccc12)NC1CCn2c(=O)[nH]c3cccc(c32)C1O` (single isomer, unassigned) [Example 4b, 7-Hydroxy-6-{[3-(1H-indol-3-yl)-1-methylpropyl]amino}-4,5,6,7-tetrahydroimidazo[4,5,1-jk][1]benzazepin-2(1H)-one], the EC50 in test [1] amounted to 3.8 nM; in test [2], 6.9 nM.

As for `CC(CCc1cncs1)N[C@@H]1CCn2c(=O)[nH]c3cccc(c32)[C@H]1O` (single isomer, unassigned) [Example 6a, 7-Hydroxy-6-{[1-methyl-3-(1,3-thiazol-5-yl)propyl]amino}-4,5,6,7-tetrahydroimidazo[4,5,1-jk][1]benzazepin-2(1H)-one], the results for the EC50 in test [1] and in test [2] were 22.9 nM and more than 10000 nM, respectively.

`CC(CCc1cncs1)N[C@@H]1CCn2c(=O)[nH]c3cccc(c32)[C@H]1O` (single isomer, unassigned) [Example 6b, 7-Hydroxy-6-{[1-methyl-3-(1,3-thiazol-5-yl)propyl]amino}-4,5,6,7-tetrahydroimidazo[4,5,1-jk][1]benzazepin-2(1H)-one]: the EC50 in test [1] is 3.6 nM; in test [2] it was more than 10000 nM.

For the compound `Cc1nn(C)c(C)c1CCC(C)N[C@@H]1CCn2c(=O)[nH]c3cccc(c32)[C@H]1O` (single isomer, unassigned) [Example 9a, 7-Hydroxy-6-{[1-methyl-3-(1,3,5-trimethyl-1H-pyrazol-4-yl)propyl]amino}-4,5,6,7-tetrahydroimidazo[4,5,1-jk][1]benzazepin-2(1H)-one], the EC50 in test [1] was determined as 402 nM; in test [2] it was 268 nM.

Turning to `Cc1nn(C)c(C)c1CCC(C)N[C@@H]1CCn2c(=O)[nH]c3cccc(c32)[C@H]1O` (single isomer, unassigned) [Example 9b, 7-Hydroxy-6-{[1-methyl-3-(1,3,5-trimethyl-1H-pyrazol-4-yl)propyl]amino}-4,5,6,7-tetrahydroimidazo[4,5,1-jk][1]benzazepin-2(1H)-one], the EC50 worked out at 4.2 nM in test [1] and 2.8 nM in test [2].

Turning to `CCOC(=O)c1[nH]c2ccccc2c1CC(C)NC1CCn2c(=O)[nH]c3cccc(c32)C1O` (single isomer, unassigned) [Example 16, Ethyl 3-(2-{[7-hydroxy-2-oxo-1,2,4,5,6,7-hexahydroimidazo[4,5,1-jk][1]benzazepin-6-yl]amino}propyl)-1H-indole-2-carboxylate], the EC50 in test [1] is 26 nM; in test [2] it was 10 nM.

For `CC(CCc1c[nH]c2ccc(Cl)cc12)N[C@@H]1CCn2c(=O)[nH]c3cccc(c32)[C@H]1O` (single isomer, unassigned) [Example 21a, 6-{[3-(5-Chloro-1H-indol-3-yl)-1-methylpropyl]amino}-7-hydroxy-4,5,6,7-tetrahydroimidazo[4,5,1-jk][1]benzazepin-2(1H)-one], the EC50 was 1830 nM in test [1] and more than 10000 nM in test [2].

As to `CC(CCc1c[nH]c2ccc(Cl)cc12)N[C@@H]1CCn2c(=O)[nH]c3cccc(c32)[C@H]1O` (single isomer, unassigned) [Example 21b, 6-{[3-(5-Chloro-1H-indol-3-yl)-1-methylpropyl]amino}-7-hydroxy-4,5,6,7-tetrahydroimidazo[4,5,1-jk][1]benzazepin-2(1H)-one], the EC50 in test [1] was determined as 15 nM; in test [2] it was 11 nM.

On to `Cc1nc(C)c(CCC(C)N[C@@H]2CCn3c(=O)[nH]c4cccc(c43)[C@H]2O)s1` (single isomer, unassigned) [Example 23a, 6-{[3-(2,4-Dimethyl-1,3-thiazol-5-yl)-1-methylpropyl]amino}-7-hydroxy-4,5,6,7-tetrahydroimidazo[4,5,1-jk][1]benzazepin-2(1H)-one], for which the EC50 in test [1] was 153 nM; in test [2], 121 nM.

For the compound `Cc1nc(C)c(CCC(C)N[C@@H]2CCn3c(=O)[nH]c4cccc(c43)[C@H]2O)s1` (single isomer, unassigned) [Example 23b, 6-{[3-(2,4-Dimethyl-1,3-thiazol-5-yl)-1-methylpropyl]amino}-7-hydroxy-4,5,6,7-tetrahydroimidazo[4,5,1-jk][1]benzazepin-2(1H)-one], the EC50 stood at 12 nM in test [1] and 4.9 nM in test [2].

`Cc1ncc(CCC(C)N[C@@H]2CCn3c(=O)[nH]c4cccc(c43)[C@H]2O)s1` (single isomer, unassigned) [Example 28b, 7-Hydroxy-6-{[1-methyl-3-(2-methyll-1,3-thiazol-5-yl)propyl]amino}-4,5,6,7-tetrahydroimidazo[4,5,1-jk][1]benzazepin-2(1H)-one]: the EC50 is 6.6 nM in test [1] and more than 10000 nM in test [2].

Regarding `CC(CCc1c[nH]c2ccncc12)N[C@@H]1CCn2c(=O)[nH]c3cccc(c32)[C@H]1O` (single isomer, unassigned) [Example 31b, 7-Hydroxy-6-{[1-methyl-3-(1H-pyrrolo[3,2-c]pyridin-3-yl)propyl]amino}-4,5,6,7-tetrahydroimidazo[4,5,1-jk][1]benzazepin-2(1H)-one], the EC50 in test [1] worked out at 58 nM; in test [2], 43 nM.

As for `CC(CCc1c[nH]c2cnccc12)N[C@@H]1CCn2c(=O)[nH]c3cccc(c32)[C@H]1O` (single isomer, unassigned) [Example 32b, 7-Hydroxy-6-{[1-methyl-3-(1H-pyrrolo[2,3-c]pyridin-3-yl)propyl]amino}-4,5,6,7-tetrahydroimidazo[4,5,1-jk][1]benzazeiin-2(1H)-one], the EC50 in test [1] was 96 nM; in test [2], 1090 nM.

Consider `Cc1ncsc1CCC(C)N[C@@H]1CCn2c(=O)[nH]c3cccc(c32)[C@H]1O` (single isomer, unassigned) [Example 34b, 7-Hydroxy-6-{[1-methyl-3-(4-methyl-1,3-thiazol-5-yl)propyl]amino}-4,5,6,7-tetrahydroimidazo[4,5,1-jk][1]benzazepin-2(1H)-one], for which the EC50 in test [1] was 1.4 nM; in test [2] it was 2.1 nM.

`CC(CCc1ccc2[nH]ccc2c1)N[C@@H]1CCn2c(=O)[nH]c3cccc(c32)[C@H]1O` (single isomer, unassigned) [Example 37]: the EC50 in test [1] came out at 16 nM; in test [2] it was 28 nM.

`CC(CCc1cccc2cc[nH]c12)N[C@@H]1CCn2c(=O)[nH]c3cccc(c32)[C@H]1O` (single isomer, unassigned) [Example 38a, 7-Hydroxy-6-{[3-(1H-indol-7-yl)-1-methylpropyl]amino}-4,5,6,7-tetrahydroimidazo[4,5,1-jk][1]benzazepin-2(1H)-one]: the EC50 in test [1] stood at 44 nM; in test [2] it was 79 nM.

Consider `CC(CCc1cccc2cc[nH]c12)N[C@@H]1CCn2c(=O)[nH]c3cccc(c32)[C@H]1O` (single isomer, unassigned) [Example 38b, 7-Hydroxy-6-{[3-(1H-indol-7-yl)-1-methylpropyl]amino}-4,5,6,7-tetrahydroimidazo[4,5,1-jk][1]benzazepin-2(1H)-one], for which the EC50 in test [1] was 0.8 nM; in test [2], 0.9 nM.

For the origin of these results see patent publication US20080267942A1, “BENZAZEPIN-2(1H)-ONE DERIVATIVES” (Pfizer Limited, priority 2006, published 2008).
